The values that follow come from US9938495B2, “Composition comprising cryopreservation medium and stem cells obtained by slow-freezing” (FERTIPRO N.V., priority 2013, dated 2018).

In test [1] the test system is CT5.3-hTERT colon cancer-associated fibroblasts. Kind of test: TGF-β-mediated growth inhibition in CT5.3-hTERT cells after cryopreservation (SRB assay, cell counter). It is filed as cell-based. The note with it: control group (routine culture, not cryopreserved); TGF-β 1 ng/ml for 1 week; n=3. On the procedure: Immortalized CT5.3-hTERT colon cancer-associated fibroblasts have been used to evaluate cellular function following cryopreservation with two different cryopreservation media: • 1) a 10:90 (% V/V) mixture of dimethylsulfoxide (DMSO) and fetal bovine serum (FBS), as known in the art; and • 2) a propylene glycol-based DMSO-free cryopreservation medium as described in Table 1 (hereafter referred to as “PCM”).
Briefly, early passage cells were cultured in routine culture medium (Dulbecco's Modified Eagle Medium (DMEM) containing 10% FBS, antibiotics and an antifungal product) at 37° C. in a humidified atmosphere with 5% CO2. Semi-confluent cells were harvested by trypsinization and cell concentration was assessed using the trypan blue exclusion method. […]
The cells of each group were treated with recombinant TGF-β (1 ng/ml) for 1 week. At the end of the experiment, cell concentration was measured using the sulforhodamine B (SRB) assay and an automated cell counter (trypan blue exclusion), respectively. […] Protein content was assessed by the bicinchoninic acid (BCA) test and concentrations were normalized, thus allowing for equal protein load for Western blot analysis. Expression of α-SMA was evaluated using a monoclonal HRP-coupled antibody, directed against this myofibroblast marker. […]
(In general: The SRB assay estimates cell density from bound dye.)

For test [2], the system named is (MSC)-hTERT mesenchymal stem cells. Kind of test: Cryopreservation tests on (MSC)-hTERT mesenchymal stem cells with TGF-β treatment. It is filed as cell-based. The text has this:
It is noted that further cryopreservation tests on (MSC)-hTERT mesenchymal stem cells using the above-mentioned DMSO/FBS and PCM also show similar results for both cryopreservation media.

Turning to TGF-β, the “inhibition of cell proliferation by TGF-β” value in test [1] is listed as 79.84+/−4.43. Also, the “effect of TGF-β on α-SMA expression” value in test [2] is given as “not to alter α-SMA expression”.
